Results on five compounds are retold here after patent publication US20250320252A1 (The Scripps Research Institute, priority 2021, published 2025).

For data set [1] the following is noted: dog, in vivo.
The conditions of data set [2]: cynomolgus monkey, in vivo.
Data set [3] can be described thus: Pharmacokinetics in CD-1 mouse, plasma concentration by LC-MS. It counts as in vivo. The conditions noted are these: for clearance: mouse, read-out: Cl—pred.
Description: The peptide plasma concentration at various time points was determined using LC-MS.
The test system of the next data set is normal mice. In words: Oral glucose tolerance test 12 h after single SC dose in mice. The class given is in vivo, mouse. The conditions noted are these: 10 nmol/kg S.C., 12 h before glucose. How it is done: Mice were fasted overnight prior to the oral glucose tolerance test (OGTT), and then dosed with peptide. After 12 h, 1 g of glucose solution per kg body weight was administered orally, and mouse tail blood glucose levels were measured before (0 min) and after glucose challenge for 90 minutes (with measurements at 15, 30, 60 and 90 minutes) (FIG. 16). The data were compared using the unpaired Student's t test. Where appropriate, data were compared using repeated measures or one-way analysis of variance, followed by the Student-Newman-Keuls post hoc test. Calculations for […] (mg/dL*min) were also analyzed and graphed in FIG. 16. […]. […].

The subject of a further data set is wild-type mice. In words: Oral glucose tolerance test 2 h and 96 h post injection in wild-type mice. The class given is in vivo, mouse. The conditions noted are these: 10 nmol/kg s.c., vs vehicle.
The target in another data set is T1, human GIPR (Homo sapiens, UniProt P48546).
T1 construct: expressed in transfected cells
T1 sequence (P48546 22-466): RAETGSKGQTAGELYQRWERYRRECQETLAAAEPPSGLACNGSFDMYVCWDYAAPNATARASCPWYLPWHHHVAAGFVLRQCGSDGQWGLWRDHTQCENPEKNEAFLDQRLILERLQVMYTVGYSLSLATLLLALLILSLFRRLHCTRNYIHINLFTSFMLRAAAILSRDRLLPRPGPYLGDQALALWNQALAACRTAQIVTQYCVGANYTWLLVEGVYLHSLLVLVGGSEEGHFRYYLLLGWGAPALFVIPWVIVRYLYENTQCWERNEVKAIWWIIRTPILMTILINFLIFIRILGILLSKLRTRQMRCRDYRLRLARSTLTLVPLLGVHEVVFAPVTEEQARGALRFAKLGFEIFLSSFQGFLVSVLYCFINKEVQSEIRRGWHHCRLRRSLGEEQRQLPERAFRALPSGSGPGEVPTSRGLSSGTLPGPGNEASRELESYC
The experiment in a line: In vitro receptor activation reporter assay (CRE-Luc), HEK293-GIPR-CRE. It counts as cell-based.

A further data set has as its target T2, human GLP-1R (Homo sapiens, UniProt P43220).
T2 construct: expressed in transfected cells
The experiment in a line: In vitro receptor activation reporter assay (CRE-Luc), HEK293-GLP-1R-CRE. It counts as cell-based. The conditions noted are these: Table 8; read-out: EC50 [nM] GLP1R. Background: Reporter assays use an easily measured gene product as a stand-in for the process of interest.

Where [4] appears, read: 1 mg/kg I.V., individual animals.
The mark [5] stands for this setting: 1 mg/kg I.V., individual animals, 1 mg/kg.
Setting [6] is: 1 mg/kg S.C., individual animals.
The mark [7] stands for this setting: 1 mg/kg S.C., individual animals, 1 mg/kg.
Where [8] appears, read: in vivo, iv, 1 mg/kg, 1 mg/kg I.V., individual animals.

Several values for one entry are separate records, joined by “and”; a condition that tells them apart may be missing. Identical values can stand only once. Like-named read-outs stand apart in the source and are kept apart here.

T2 sequence (P43220 24-463): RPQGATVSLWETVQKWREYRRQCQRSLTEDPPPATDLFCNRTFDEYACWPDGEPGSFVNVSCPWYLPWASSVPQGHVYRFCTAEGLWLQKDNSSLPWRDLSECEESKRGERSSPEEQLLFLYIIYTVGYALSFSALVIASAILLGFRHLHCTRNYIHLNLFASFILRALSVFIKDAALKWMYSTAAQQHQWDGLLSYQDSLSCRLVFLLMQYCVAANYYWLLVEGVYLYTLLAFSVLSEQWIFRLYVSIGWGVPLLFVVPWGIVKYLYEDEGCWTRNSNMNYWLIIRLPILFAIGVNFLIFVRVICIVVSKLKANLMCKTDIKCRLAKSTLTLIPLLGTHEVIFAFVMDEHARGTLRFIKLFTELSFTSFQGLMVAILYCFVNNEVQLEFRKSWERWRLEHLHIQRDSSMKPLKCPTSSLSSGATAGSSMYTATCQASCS
Excerpt for human GIPR: HEK293 cells were infected with lentivirus encoding firefly luciferase gene under the control of cAMP responsive element (CRE) promoter (Qiagen, The Netherlands) and then were selected using 1 g mL^−1 puromycin (Life Technologies, Carlsbad) for 1 week. The surviving cells (referred to as CRE-HEK293) were expanded and then transfected with a G418 selective mammalian expression plasmid encoding human GLP-1R or GIPR. In brief, GLP-1R or GIPR plasmid was transfected into CRE-HEK293 cells using Lipofectamine 2000 and selected with 400 g mL^−1 Geneticin (Life Technologies, Carlsbad, CA). Single colony stable cell line overexpressing CRE-luciferase and GLP-1R or GIPR (HEK293-GLP-1R-CRE or HEK293-GIPR-CRE) was then established for in vitro activity assay.
(§1) The EC50 of each peptide was determined using GraphPad Prism 6 software (GraphPad, San Diego, CA).
Description for human GLP-1R: as §1
HEK293 cells were infected with lentivirus encoding firefly luciferase gene under the control of cAMP responsive element (CRE) promoter (Qiagen, The Netherlands) and then were selected using 1 g/mL puromycin (Life Technologies, Carlsbad) for 1 week. The surviving cells (referred to as CRE-HEK293) were expanded and then transfected with a G418 selective mammalian expression plasmid encoding human GLP-1R. In brief, GLP-1R plasmid was transfected into CRE-HEK293 cells using Lipofectamine 2000 and selected with 400 g/mL Geneticin (Life Technologies, Carlsbad, CA). Single colony stable cell line overexpressing CRE-luciferase and GLP1R was then established for in vitro activity assay.
Description for wild-type mice: Data are means±SE, n=6 per group.
Oral glucose tolerance test (OGTT) Female Charles River CD-1 mice were fasted overnight and then administrated 150 μL of each peptide in PBS (pH=8.2) by i.v. or s.c. route.

Turning to `CC[C@H](C)[C@H](NC(=O)[C@H](CC(C)C)NC(=O)[C@H](Cc1c[nH]c2ccccc12)NC(=O)[C@@H]1CSCC(=O)NCCN(C(=O)CCC(=O)NCCOCCOCCC(=O)NCCOCCOCCC(=O)NCCCC[C@H](NC(=O)CCCCCCCCCCCCCCCCCCC(=O)O)C(=O)O)CCNC(=O)CSC[C@H](NC(=O)[C@H](CCCCN)NC(=O)[C@H](CC(=O)O)NC(=O)[C@H](CC(C)C)NC(=O)[C@H](Cc2ccc(O)cc2)NC(=O)[C@@H](NC(=O)[C@H](CO)NC(=O)[C@H](Cc2ccc(O)cc2)NC(=O)[C@H](CC(=O)O)NC(=O)[C@H](CO)NC(=O)[C@@H](NC(=O)[C@H](Cc2ccccc2)NC(=O)[C@@H](NC(=O)CNC(=O)[C@H](CCC(=O)O)NC(=O)C(C)(C)NC(=O)[C@@H](N)Cc2ccc(O)cc2)[C@@H](C)O)[C@@H](C)O)[C@@H](C)CC)C(=O)N[C@@H](C)C(=O)N[C@@H](C)C(=O)NC(C)(C)C(=O)N[C@@H](CCC(=O)O)C(=O)N[C@@H](Cc2ccccc2)C(=O)N[C@@H](C(C)C)C(=O)N1)C(=O)N[C@@H](C)C(=O)NCC(=O)NCC(=O)N1CCC[C@H]1C(=O)N[C@@H](CO)C(=O)N[C@@H](CO)C(=O)NCC(=O)N[C@@H](C)C(=O)N1CCC[C@H]1C(=O)N1CCC[C@H]1C(=O)N1CCC[C@H]1C(=O)N[C@@H](CO)C(N)=O` [mCMV268, YAibEGT-FTSDY-SIYLD-KXAAAib-EFVXW-LIAGG-PSSGA-PPPS-NH2 (where each X is C)], the Bioavailability in data set [1] (po) is recorded as 0.27%, 0.27%,.

For `CC[C@H](C)[C@H](NC(=O)[C@H](CC(C)C)NC(=O)[C@H](Cc1c[nH]c2ccccc12)NC(=O)[C@@H]1CSCC(=O)NCCN(C(=O)CCC(=O)NCCOCCOCCC(=O)NCCOCCOCCC(=O)NCCCC[C@H](NC(=O)CCCCCCCCCCCCCCCCC(=O)O)C(=O)O)CCNC(=O)CSC[C@H](NC(=O)[C@H](CCCCN)NC(=O)[C@H](CC(=O)O)NC(=O)[C@H](CC(C)C)NC(=O)[C@H](Cc2ccc(O)cc2)NC(=O)[C@@H](NC(=O)[C@H](CO)NC(=O)[C@H](Cc2ccc(O)cc2)NC(=O)[C@H](CC(=O)O)NC(=O)[C@H](CO)NC(=O)[C@@H](NC(=O)[C@H](Cc2ccccc2)NC(=O)[C@@H](NC(=O)CNC(=O)[C@H](CCC(=O)O)NC(=O)C(C)(C)NC(=O)[C@@H](N)Cc2ccc(O)cc2)[C@@H](C)O)[C@@H](C)O)[C@@H](C)CC)C(=O)N[C@@H](C)C(=O)N[C@@H](C)C(=O)NC(C)(C)C(=O)N[C@@H](CCC(=O)O)C(=O)N[C@@H](Cc2ccccc2)C(=O)N[C@@H](C(C)C)C(=O)N1)C(=O)N[C@@H](C)C(=O)NCC(=O)NCC(=O)N1CCC[C@H]1C(=O)N[C@@H](CO)C(=O)N[C@@H](CO)C(=O)NCC(=O)N[C@@H](C)C(=O)N1CCC[C@H]1C(=O)N1CCC[C@H]1C(=O)N1CCC[C@H]1C(=O)N[C@@H](CO)C(N)=O` [mCMZ371, YAibEGT-FTSDY-SIYLD-KXAAAib-EFVXW-LIAGG-PSSGA-PPPS-NH2 (where each X is C)], the “t1/2 in cynomolgus monkeys” value in data set [2] is on record as “long t1/2”. For the same compound, the Tlast in data set [2] (iv) turned out to be 240 h; in data set [2] (sc), 240 h; in data set [1] (iv) it was 240 h; in data set [1] (sc), 240 h; in data set [3] (setting [4]), 72 h; in data set [3] (setting [6]), 72 h. For the same compound, in data set [1], the “t1/2 in dogs” value is recorded as “long t1/2”. For the same compound, the “AUC compared with mCMZ370” value in data set [3] (1 mg/kg I.V. or S.C.) is “significantly larger area under the curve”. Also, the “half-life compared with mCMZ370” value in data set [3] (1 mg/kg I.V. or S.C.) is listed as “longer half-life”. Further, in data set [3] (setting [5]), the “AUC—%Extrap—pred” value turned out to be 0.75%. Also, the “Cl—pred” value in data set [3] (setting [5]) is 0.046 mL/min/kg and 0.041 mL/min/kg. In data set [3] (setting [7]), the “Cl—Fpred” value was 0.12 mL/min/kg and 0.08 mL/min/kg and 0.24 mL/min/kg. The “V—F—pred” value in data set [3] (setting [7]) was 0.06 L/kg and 0.12 L/kg and 0.08 L/kg. The Vd in data set [3] (in vivo, iv, 1 mg/kg I.V., individual animals, read-out: Vss—pred) worked out at 0.054 L/kg. In addition, in data set [3] (setting [8]), the clearance is 0.048 mL/min/kg.

For the compound Semaglutide, in the data set with normal mice, the “effects on glucose tolerance at 10 nmol/kg” value is reported as “indistinguishable effects on glucose tolerance”. Also, in the data set with wild-type mice, the “glucose tolerance (OGTT) 96 h after administration” value is on record as “did not exhibit any improvement over the vehicle”.

The compound `CC[C@H](C)[C@H](NC(=O)[C@H](CC(C)C)NC(=O)[C@H](Cc1c[nH]c2ccccc12)NC(=O)[C@H](CC(N)=O)NC(=O)[C@@H](NC(=O)[C@H](Cc1ccccc1)NC(=O)[C@@H]1CSCC(=O)NCCN(C(=O)CCC(=O)NCCOCCOCCC(=O)NCCOCCOCCC(=O)NCCCC[C@H](NC(=O)CCCCCCCCCCCCCCCCC(=O)O)C(=O)O)CCNC(=O)CSC[C@H](NC(=O)[C@H](Cc2ccc(O)cc2)NC(=O)[C@@H](NC(=O)[C@H](CO)NC(=O)[C@H](Cc2ccc(O)cc2)NC(=O)[C@H](CC(=O)O)NC(=O)[C@H](CO)NC(=O)[C@@H](NC(=O)[C@H](Cc2ccccc2)NC(=O)[C@@H](NC(=O)CNC(=O)[C@H](CCC(=O)O)NC(=O)C(C)(C)NC(=O)[C@@H](N)Cc2ccc(O)cc2)[C@@H](C)O)[C@@H](C)O)[C@@H](C)CC)C(=O)N[C@@H](CC(=O)O)C(=O)N[C@@H](CCCCN)C(=O)N[C@@H](CCC(N)=O)C(=O)N[C@@H](C)C(=O)N[C@@H](C)C(=O)NC(C)(C)C(=O)N1)C(C)C)C(=O)N[C@@H](C)C(=O)NCC(=O)NCC(=O)N1CCC[C@H]1C(=O)N[C@@H](CO)C(=O)N[C@@H](CO)C(=O)NCC(=O)N[C@@H](C)C(=O)N1CCC[C@H]1C(=O)N1CCC[C@H]1C(=O)N1CCC[C@H]1C(=O)N[C@@H](CO)C(N)=O` [mCMZ370, YAibEGT-FTSDY-SIYXD-KQAAAib-XFVNW-LIAGG-PSSGA-PPPS-NH2 (where each X is C)] had a Tlast in data set [3] (setting [4]) of 72 h. In data set [3] (setting [5]), the “AUC—%Extrap—pred” value is 0.39% and 0.38% and 0.6%; the “Cl—pred” value worked out at 0.162 mL/min/kg; the “Vz—pred” value is on record as 0.099 L/kg. In data set [3] (setting [6]), this compound gave a Tlast of 72 h. In data set [3] (setting [7]), the “AUC—%Extrap—pred” value is 0.26% and 0.31% and 0.19%; the “AUMC—%Extrap—pred” value is recorded as 0.99%; the “Cl—Fpred” value was 0.24 mL/min/kg and 0.21 mL/min/kg and 0.06 mL/min/kg; the “V—F—pred” value is 0.2 L/kg and 0.15 L/kg and 0.13 L/kg. Further, the clearance in data set [3] (setting [8]) is 0.112 mL/min/kg.

As to `CC[C@H](C)[C@H](NC(=O)[C@H](CO)NC(=O)[C@H](Cc1ccc(O)cc1)NC(=O)[C@H](CC(=O)O)NC(=O)[C@H](CO)NC(=O)[C@@H](NC(=O)[C@H](Cc1ccccc1)NC(=O)[C@@H](NC(=O)CNC(=O)[C@H](CCC(=O)O)NC(=O)C(C)(C)NC(=O)[C@@H](N)Cc1ccc(O)cc1)[C@@H](C)O)[C@@H](C)O)C(=O)N[C@@H](Cc1ccc(O)cc1)C(=O)N[C@H]1CSCC(=O)NCCN(C(=O)CCC(=O)NCCOCCOCCC(=O)NCCOCCOCCC(=O)NCCCC[C@H](NC(=O)CCCCCCCCCCCCCCCCCCC(=O)O)C(=O)O)CCNC(=O)CSC[C@@H](C(=O)N[C@@H](Cc2ccccc2)C(=O)N[C@H](C(=O)N[C@@H](CC(N)=O)C(=O)N[C@@H](Cc2c[nH]c3ccccc23)C(=O)N[C@@H](CC(C)C)C(=O)N[C@@H](CC(C)C)C(=O)N[C@@H](C)C(=O)NCC(=O)NCC(=O)N2CCC[C@H]2C(=O)N[C@@H](CO)C(=O)N[C@@H](CO)C(=O)NCC(=O)N[C@@H](C)C(=O)N2CCC[C@H]2C(=O)N2CCC[C@H]2C(=O)N2CCC[C@H]2C(=O)N[C@@H](CO)C(N)=O)C(C)C)NC(=O)C(C)(C)NC(=O)[C@H](C)NC(=O)[C@H](C)NC(=O)[C@H](CCC(N)=O)NC(=O)[C@H](CCCCN)NC(=O)[C@H](CC(=O)O)NC1=O` [C(14-21) - C20L5A, YAibEGT-FTSDY-SIYXD-KQAAAib-XFVNW-LLAGG-PSSGA-PPPS-NH2 (where each X is C)], the EC50 was 0.05 nM on human GIPR (Table 8, read-out: EC50 [nM] GIPR); 0.05 nM at human GIPR (unnumbered table (Table 10), average of runs, read-out: GIPR (nM) [EC50] average); 0.07 nM on human GIPR (unnumbered table (Table 10), run 02/19, read-out: GIPR (nM) [EC50] 02/19); 0.04 nM at human GIPR (unnumbered table (Table 10), run 03/25, read-out: GIPR (nM) [EC50] 03/25); 0.04 nM on human GIPR (unnumbered table (Table 10), run 03/26, read-out: GIPR (nM) [EC50] 03/26); 0.2 nM on human GLP-1R.
